Source: patent EP0316117A1 (priority 1987, dated 1989)

How the values were obtained:
Sendai virus = Sendai virus assay (method as described for Parainfluenza); assay type: cell-based; conditions: reduction in the virus titer compared to control
Parainfluenza virus = Parainfluenza virus pre-incubated with compound, grown in fertilized hen eggs, hemagglutination read-out; assay type: cell-based; design: key: -: undetectable; ++++: indicative of hemagglutination produced by virus grown under control conditions
Protocol: The effectiveness of certain novel compounds was tested against Parainfluenza virus which was grown in fertilized hen eggs as determined by the method of Haywood, J. of Mol. Biol., 83, 427 (1974). The virus was at titer of 10^5 to 10^6 was incubated in the presence of 10 ug/ml or 100 u^g/ml of one of the four compounds at 37° C for 2 hours. The mixtures of the virus and anti-viral compound were diluted to a final concentration of 10-^7 then injected into 9-day old fertilized hen eggs using 5 to 6 eggs for each dilution and incubated at 37° C for 48 hours. After the incubation period, a drop of amniotic fluid from the eggs was put on mirror-glass and mixed with 2% washed hen erythrocytes. Appearance of hemagglutination indicated the presence of virus in the egg. LDso was calculated from the results. The following Table 1 presents the results that were obtained. The virus concentrations ranged from -(undetectable) to + + + + (indicative of hemagglutination produced by virus grown under control conditions).

[1] = compound 100 µg/ml, Virus Concentrations 10
[2] = compound 100 µg/ml, Virus Concentrations 10^2
[3] = compound 100 µg/ml, Virus Concentrations 10^3

Row | Substance | Virus Titer Reduction (Sendai virus; 1µg/ml) | Virus Titer Reduction (Sendai virus; 10µg/ml) | Virus Titer Reduction (Sendai virus; 50µg/ml) | Virus Titer Reduction (Sendai virus; 100µg/ml) | hemagglutination (presence of virus in the egg) (Parainfluenza virus; compound 10 µg/ml, Virus Concentrations 10) | hemagglutination (presence of virus in the egg) (Parainfluenza virus; compound 10 µg/ml, Virus Concentrations 10^2) | hemagglutination (presence of virus in the egg) (Parainfluenza virus; [1]) | hemagglutination (presence of virus in the egg) (Parainfluenza virus; [2]) | hemagglutination (presence of virus in the egg) (Parainfluenza virus; [3]) | hemagglutination (presence of virus in the egg) (Parainfluenza virus; compound 10 µg/ml, Virus Concentrations 10^4)
1 | 4-N-Acetyl phosphatidylethanolamine [A-PE] | about 50% | ranged from 75-95% | ranged from 90-99% | 100% (virus undetectable) |  |  |  |  |  | 
2 | 5-Schiff Base of PE and Menadione (Vitamin K3) [PE-M] |  |  |  |  | - | - | - | - | - | 
3 | N-(1,1-dimethyl 3-oxybutyl phosphatidyl ethanolamine [DMOB-PE] | less than 10% | ranged from 75-99% | ranged from 90-93% | 100% (virus undetectable) |  |  | - | - |  | ++++
4 | Phosphatidyl benzyl alcohol [P-BA] |  |  |  |  |  |  | - | - | - | 
